From US20140057954A1, “CHEMICAL COMPOSITION” (FOREST LABORATORIES HOLDINGS LTD., priority 2012, published 2014)
Values after ≈ are worked out from the molar mass of the structure shown.

Tests used:
[1] = system: patients with mild to moderate hypertension; assay: Population PK/PD analysis (Emax model) of nebivolol plasma concentration versus mean sitting DBP; format: in vivo, human
Experimental: The study involved first determining the relationship between nebivolol plasma concentration and the therapeutic diastolic blood pressure (DBP)-reducing effect by nebivolol when administered alone. A population PK/PD analysis was performed to assess the relationship between nebivolol plasma concentration and its therapeutic DBP-reducing effect. The analysis utilized PK/PD data that was collected from patients with mild to moderate hypertension following a Phase 3, double-blind, placebo-controlled, multicenter study. During the study, patients were randomized to 7 parallel treatment arms wherein the patient received either a placebo or any of 6 different doses of nebivolol (between 1.25 and 40 mg). The patients were also stratified across all treatment arms by covariates of race (African American vs non-African American), age (<65 vs≧65 years), gender, diabetes status (history of diabetes mellitus vs no history of diabetes mellitus), and by metabolism of nebivolol (PM vs EM of CYP 2D6). Blood pressure data was collected from each patient initially and at days 28 and 84 of treatment. The study results were refined and updated using nonlinear mixed-effects modeling (NONMEM) software, version VII, with first-order conditional estimation/interaction method. […] Moreover, the EC50 (half maximal effective concentration) was determined.

[2] = Crossover trial of nebivolol exposure, alone versus in free combination with valsartan, once daily for 7 days; format: in vivo, human
Experimental: […], 3-way crossover trial was performed in healthy subjects to assess the pharmacokinetic (pK) and pharmacodynamic (pD) impact of administered valsartan on nebivolol.
28 subjects aged 19-45 were randomized to the following once-daily treatments for 7 days under fasted conditions: (A) nebivolol alone (20 mg tablet) and (B) concomitant nebivolol 20 mg+valsartan 320 mg in free combination. Blood samples were collected from each subject for pK analysis at the following time points: 0 hour (predose) on Days 1, 14, and 27 and at 0 hour (predose) and 1, 2, 4, 6, 10, 16, 24, 36, and 48 hours postdose on Days 7, 20, and 33.
The bioanalytical procedure used to measure plasma concentrations of nebivolol was a LC/MS/MS (liquid chromatography/tandem mass spectrometry) method.
Among the pK parameters measured were AUC0-τ,ss (area under the plasma concentration versus time curve from time 0 to the dosing interval, τ, at steady state); Cdmax,ss (maximum plasma drug concentration at steady state); Tmax,ss (time of maximum plasma drug concentration following drug administration at steady state); Cmin,ss minimum plasma drug concentration at steady state); Cav,ss (average plasma drug concentration at steady state); and CL/F (apparent total clearance from plasma after oral administration). These pK parameters were derived from plasma concentrations using noncompartmental analysis with the software program SAS (version 9.1.3). In addition, the 2-sided 90% confidence interval (CI) for the ratio of geometric means of Cmax and AUC0-τ,ss between nebivolol coadministered with valsartan and nebivolol alone were constructed.

[3] = coadministered with valsartan versus nebivolol alone

EC50 ([1]; Homo sapiens, Emax model, mean sitting DBP, Phase 3 data, nebivolol 1.25-40 mg, read-out: EC50 estimate of d,l-nebivolol concentrations (DBP PK/PD model)): 0.0179 ng/mL (≈ 0.0441 nM) | decrease in mean nebivolol AUC0-τ [2, 3]: 15-20% | decrease in mean nebivolol Cmax [2, 3]: 40-50% | AUC ([2]; human, plasma, oral, 20 mg nebivolol once daily for 7 days, alone or with 320 mg valsartan, healthy subjects, fasted, steady state, read-out: nebivolol AUC0-τ, Arithmetic Mean): 41.5 ng·h/mL | Cmax ([2]; human, plasma, oral, 20 mg nebivolol once daily for 7 days, alone or with 320 mg valsartan, healthy subjects, fasted, steady state, read-out: nebivolol Cmax, Arithmetic Mean): 8.02 ng/mL | Cmax and CSS,max reduction ([2]; in the presence of valsartan): approximately 50% | mean reduction in nebivolol Cavg and CSS,avg ([2]; in the presence of valsartan): ~20%
SMILES: OC(CNCC(O)C1CCc2cc(F)ccc2O1)C1CCc2cc(F)ccc2O1 (centres unmarked) [nebivolol]
Emax in DBP reduction ([1]; after correction for the placebo effect): approximately 5 mm Hg
